# Test results as given in patent US20200178527A1, “Method for Promoting Growth and Preservation Quality of Agaricus Bisporus” (Nanjing University of Finance & Economics, priority 2018, published 2020).
# Tests used:
# [1] = tested on: Agaricus bisporus; assay: Post-harvest storage (preservation quality) of Agaricus bisporus at 4° C., relative humidity 90-95%; format: in vivo
# Procedure: Experiment of promoting the growth and preservation quality of Agaricus bisporus (1) An ethanol-water solvent with an ethanol concentration (by volume fraction) of 2% was prepared, and then the methyl jasmonate (MeJA) was dissolved in the ethanol-water solvent to prepare MeJA solutions at concentrations respectively of 10, 50, 100, and 200 μmol/L. (2) The aforementioned MeJA solutions were each used as an inducer and poured into an automatic spraying device, and were each uniformly sprayed onto the surface of Agaricus bisporus when it was grown to the mushroom bud stage, where the spraying dose of 30 mL/m^2 was used as the treatment group. At the same time, the treatments with water and a 2% ethanol solution were as a blank group and a control group, respectively. The subsequent culturing conditions were 17° C. and a humidity of 90%. The Agaricus bisporus was stored under conditions of 4° C. and a relative humidity of 90-95% after harvested, so as to observe its appearance and quality, and the results were as shown in FIG. 2.
# [2] = tested on: Agaricus bisporus; assay: Growth of Agaricus bisporus after spraying MeJA solution at mushroom bud stage; format: in vivo; settings: for Diameter of Pileus / Diameter of Stipe / Thickness of Pileus / Weight: 30 mL/m^2 spray
# Procedure: Experiment of promoting the growth and preservation quality of Agaricus bisporus (1) An ethanol-water solvent with an ethanol concentration (by volume fraction) of 2% was prepared, and then the methyl jasmonate (MeJA) was dissolved in the ethanol-water solvent to prepare MeJA solutions at concentrations respectively of 10, 50, 100, and 200 μmol/L.
# (2) The aforementioned MeJA solutions were each used as an inducer and poured into an automatic spraying device, and were each uniformly sprayed onto the surface of Agaricus bisporus when it was grown to the mushroom bud stage, where the spraying dose of 30 mL/m^2 was used as the treatment group. At the same time, the treatments with water and a 2% ethanol solution were as a blank group and a control group, respectively. The subsequent culturing conditions were 17° C. and a humidity of 90%.
# (3) Photographing and sampling are performed every 24 h during the treatment. After sampling, the weight (m) of a single mushroom was weighed and recorded, and the diameter of pileus (a), the diameter of stipe (b) and the thickness of pileus (c) were measured with a microcalliper and recorded to calculate the average values, and the results were shown in Table 1.
# [3] = methyl jasmonate solution of 10-200 μmol/l sprayed at mushroom bud stage
# [4] = 10 μM MeJA, day 1 after treatment
# [5] = 10 μM MeJA, day 2 after treatment
# [6] = 50 μM MeJA, day 1 after treatment
# [7] = 50 μM MeJA, day 2 after treatment
# [8] = 100 μM MeJA, day 1 after treatment
# [9] = 100 μM MeJA, day 2 after treatment
# [10] = 200 μM MeJA, day 1 after treatment
# [11] = 200 μM MeJA, day 2 after treatment
smiles,measurement,setting,value
"CC/C=C\CC1C(=O)CCC1CC(=O)OC (stereo not drawn) [MeJA, methyl jasmonate]",preserving effect on Agaricus bisporus,"[1]; 10-200 μmol/L, compared with blank group and ethanol group, storage at 4° C., RH 90-95% (FIG. 2)",significant preserving effect
same,extension of post-harvest storage time,[1]; [3],2 to 4 days
same,Diameter of Pileus,[2]; [4],20.21 ± 0.67 mm
same,Diameter of Stipe,[2]; [4],12.60 ± 0.91 mm
same,Thickness of Pileus,[2]; [4],12.07 ± 0.48 mm
same,Weight,[2]; [4],3.83 ± 0.01 g
same,Diameter of Pileus,[2]; [5],37.04 ± 0.47 mm
same,Diameter of Stipe,[2]; [5],18.17 ± 0.60 mm
same,Thickness of Pileus,[2]; [5],21.49 ± 0.50 mm
same,Weight,[2]; [5],16.27 ± 0.27 g
same,Diameter of Pileus,[2]; [6],24.29 ± 0.75 mm
same,Diameter of Stipe,[2]; [6],13.91 ± 0.66 mm
same,Thickness of Pileus,[2]; [6],14.80 ± 0.49 mm
same,Weight,[2]; [6],6.81 ± 0.09 g
same,Diameter of Pileus,[2]; [7],39.01 ± 0.67 mm
same,Diameter of Stipe,[2]; [7],18.76 ± 0.38 mm
same,Thickness of Pileus,[2]; [7],22.29 ± 0.21 mm
same,Weight,[2]; [7],20.34 ± 0.20 g
same,Diameter of Pileus,[2]; [8],20.52 ± 0.33 mm
same,Diameter of Stipe,[2]; [8],14.14 ± 0.35 mm
same,Thickness of Pileus,[2]; [8],12.28 ± 0.32 mm
same,Weight,[2]; [8],3.69 ± 0.06 g
same,Diameter of Pileus,[2]; [9],31.97 ± 0.78 mm
same,Diameter of Stipe,[2]; [9],16.30 ± 0.82 mm
same,Thickness of Pileus,[2]; [9],18.73 ± 0.82 mm
same,Weight,[2]; [9],11.18 ± 0.10 g
same,Diameter of Pileus,[2]; [10],20.79 ± 0.57 mm
same,Diameter of Stipe,[2]; [10],13.56 ± 0.83 mm
same,Thickness of Pileus,[2]; [10],12.70 ± 0.19 mm
same,Weight,[2]; [10],3.48 ± 0.14 g
same,Diameter of Pileus,[2]; [11],30.71 ± 0.69 mm
same,Diameter of Stipe,[2]; [11],17.94 ± 0.39 mm
same,Thickness of Pileus,[2]; [11],17.5 ± 0.48 mm
same,Weight,[2]; [11],10.10 ± 0.14 g
same,effect on growth of Agaricus bisporus,"[2]; 10-100 μmol/L, compared with blank group and ethanol group (FIG. 1, Table 1)",significant effect of promoting the growth
same,improvement of yield,[2]; [3],20%-25%
